# Assay results as given in patent US20200390902A1, “Antibody-Drug Conjugates Targeted at Human Aspartyl-(Asparaginyl)-B-Hydroxylase (HAAH)” (Panacea Pharmaceuticals, Inc., priority 2017, published 2020).
# “Also recorded” adds a separate entry of the source.
# Columns and labels:
# [1] = tested on: MIA-PaCa-2 ASPH-derived tumors; assay: Mouse model inoculated with pancreas cancer cells, MIA-PaCa-2 ASPH tumors; assay type: in vivo
# Description: The efficacy and specificity of SNS622-MC-DM1 was first examined in the mouse model with inoculation of pancreas cancer cells. In this model. 5 to 6-week-old female Nod Scid Gamma (NSG) mice (The Jackson Laboratory, Bar Harbor, Me., U.S.A.) were subcutaneously inoculated with 5×10^5 MIA-PaCa-2 EV cells (MIA-PaCa-2 cells transduced with an empty lentivirus vector) in 100 μl buffer solution on one shoulder, and with 5×10^5 MIA-PaCa-2 ASPH cells (MIA-PaCa-2 cells expressing high levels of ASPH) in 100 μl buffer solution on the other shoulder Two weeks post-inoculation, SNS622-MC-DM1 or IgG1-MC-DM1 was injected at 5 mg/kg through a tail vein once a week for 4 weeks. A representation of the schedule used for the ADC treatments is show n in FIG. 13.
# The volume of the tumors inoculated with the MIA-PaCa-2 ASPH cells was measured starting at day 1 of treatment with ADC, and the results are shown in FIG. 15B.
# H460 cells [2] = assay: Cell morphology by phase contrast microscope, H460; assay type: cell-based, human; conditions: H460, 32 nM, 72 hours
# H460 cells [3] = assay: Lactate dehydrogenase (LDH) release assay, H460
# Description: FIG. 6 depicts the effects of linker and payload on cytotoxicity to cancer cell H460. […] The Log of the antibody concentration in nM is shown on the X axis.
# HAAH is highly expressed on the surface of cancer cells, but not on normal adult human cells. The specificity of SNS622-MC-DM1 was examined using human lung carcinoma cell line H460 and LONZA NHLF, a normal human lung fibroblasts (NHLF) cell line. Both cell lines were cultured in HG-DMEM (ThermoFisher Scientific Catalog No. 11965-092) supplemented with 20 mM HEPES (4-(2-hydroxyethyl)-1-piperazineethanesulfonic acid), 4 mM L-glutamine, 1 mM sodium pyruvate, 1× non-essential amino acids, 50 μg/ml gentamicin and 10% fetal bovine serum (FBS). H460 and NHLF cells were seeded into 96-well plates at 5,000 cells per well, following a 2-day FBS deprivation, and released by culture in complete culture medium containing 10% FBS. […] By 72 hours post treatment, cell death was determined by observing cell morphology using a phase contrast microscope at 150×.
# The cell death was also quantified using lactate dehydrogenase (LDH) releasing assay. For the LDH assay, a mixture of a 35 μl aliquot of culture medium and 17.5 μl of substrate, enzyme, and dye solutions (Sigma, St. Louis, Mo., U.S.A.) was incubated at room temperature for 30 minutes, and absorbance was measured at 490 nm using a plate reader (ELx805; BioTek, Winooski, Vt., U.S.A.).
# MIA-PaCa-2 ASPH cells = assay: MTS cytotoxicity assay, MIA-PaCa-2 ASPH; assay type: cell-based, human; conditions: 10-50 nM, 48 hours
# Description: The in vitro specificity of SNS622-MC-DM1 was also examined using the human pancreas cell line MIA-PaCa-2 ASPH. This cell line has a high level expression of ASPH. MIA-PaCa-2 cells were seeded at a density of 2,000 cells/well and cultured in high-glucose (25 mM D-glucose) Dulbecco's Modified Eagle's Medium (DMEM) with 10% FBS at 37° C. in a humidified atmosphere containing 5% CO2. The cells were treated with 10 nM IgG1-MC-DM1, 20 nM IgG1-MC-DM1, 50 nM IgG1-MC-DM1, 10 nM SNS622-MC-DM1, 20 nM SNS622-MC-DM1, or 50 nM SNS622-MC-DM1 for 48 hours. IgG1-MC-DM1 is a control ADC obtained from Goodwin Biotechnology, having catalog No. DAGIC1194, The cytotoxicity of the ADCs was measured using an MTS assay kit (Promega, Catalog No, G3582). After treatment for 1 hour with the MTS solution, absorbance was measured using a microplate reader at a 490 nm wavelength, with a reference at 690 nm.
# MOLM-14 cells = assay: MTS cell viability assay, MOLM-14; assay type: cell-based, human; conditions: MOLM-14, 24 hours
# Description: Human H460 cells were obtained from the American Type Culture Collection (ATCC; Manassas, Va., U.S.A.). […] Human MOLM-14 cells were obtained from Dr. Ashkan Emadi at University of Maryland (Baltimore. Md., U.S.A.). The MOLM-14 cells were seeded at a density of 5000 cells/well in 96-well plates and cultured in RPMI 1640 with 20% heat-inactivated FBS. The H460 and MOLM-14 cells were treated with naked antibodies or ADCs for 24 hours, starting at the time of cell seeding. By the end of experiment, the cell viability for both cell lines was determined quantitatively using CELL TITER 96 AQUOUS ONE SOLUTION cell proliferation assay, a colorimetric method for determining the number of viable cells (MTS; Promega, Madison. Wis., U.S.A.; Catalog No. G3582).
# [4] = tested on: pancreatic ductular adenocarcinoma (PDAC) xenograft; assay: Patient-derived xenograft (PDx) model of PDAC, primary tumor growth; assay type: in vivo, mouse; conditions: 2.5 mg/kg i.v., by day 35, vs SNS622 or non-treated control
# From the text: Pancreatic ductular adenocarcinoma (PDAC) is a highly lethal malignancy with limited treatment options. HAAH is a cell surface protein that is highly expressed in […] of PDACs. The specificity of SNS622-MC-DM1 was next examined in the patient-derived xenograft (PDx) mouse model PDAC. The patient-derived xenograft (PDx) murine model was established by using surgically resected PDAC (from Rhode Island Hospital, Providence, R.I., U.S.A.). Five to six-week-old female Nod Scid Gamma (NSG) mice were employed. The surgically resected tumor tissue was diced into 5×5×5 mm^3 pieces, and a piece of tumor tissue was subcutaneously transplanted under anesthesia with isoflurane into each mouse via a small incision in the lower back, A buprenorphine analgesic was injected to each mouse for 3 days after surgery. The SNS622 antibody or the SNS622-MC-DM1 ADC was administered at a dose of 2.5 mg/kg by intravenous tail-vein injection every two weeks starting at day 17 post-surgery. Body weight and tumor size were measured twice a week and tumor volume was calculated using the modified ellipsoid formula (0.5×length×width^2). To determine the effect of SNS622-MC-DM1 on lung metastasis, all lung tissues were immersed in Bouin's fixative solution (Sigma-Aldrich, St. Louis, Mo., U.S.A.; catalog No, HT10132) and metastatic nodules on the surface of the lungs were counted. […]
substance,measurement,setting,value
SNS622-MC-DM1: SNS622 anti-HAAH monoclonal antibody conjugated to mertansine (DM1) by the non-cleavable linker maleimidocaproyl (MC),Effect on MIA-PaCa-2 ASPH tumor volume / growth,"[1]; 5 mg/kg, up to 29 days",robustly suppressed; also recorded: strongly suppressed growth of MIA-PaCa-2 ASPH-derived tumors
same,Reduction in tumor volume in comparison with IgG-MC-DM1 group,"[1]; day 15, 5 mg/kg tail vein once a week",approximately 55%
same,Reduction in tumor volume in comparison with IgG-MC-DM1 group,"[1]; day 22, 5 mg/kg tail vein once a week",approximately 53%
same,Reduction in tumor volume in comparison with IgG-MC-DM1 group,"[1]; day 29, 5 mg/kg tail vein once a week",approximately 53%
same,Volume of MIA-PaCa-2 ASPH-derived tumors relative to MIA-PaCa-2 EV-derived tumors,"[1]; treatment day 29, same mouse, 5 mg/kg",approximately 1/7
same,Cell density (morphology),H460 cells [2],reduction of cell density
same,Increase in release of LDH compared to untreated cells,"H460 cells [3]; H460, 32 nM, 72 hours",39 ×
same,CC50,"H460 cells [3]; read-out: LC50 of LDH, H460, 72 hours, reaction DAR 10:1",0.036 µM
same,Reduction of relative absorbance (MTS),MIA-PaCa-2 ASPH cells,about 16%
same,Effect on MOLM-14 cell viability / growth (MTS),MOLM-14 cells,inhibit in vitro cell growth of both H460 and MOLM-14; also recorded: greatest suppression in the growth of MOLM-14 cells
same,PDAC tumor growth,[4],significantly reduced PDAC tumor growth
